Measured values taken from US11306081B2, “Phenylacetamides as inhibitors of rock” (BRISTOL-MYERS SQUIBB COMPANY, priority 2017, dated 2022).

Target: ROCK2 (Homo sapiens (Human), UniProt O75116)
Test: ROCK assay (LABCHIP 3000 peptide phosphorylation assay)
Assay type: biochemical
Settings: 5 μM ATP, 1.5 μM peptide substrate, dose-response
Summary of the method: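 Rho kinase variants in 20 mM HEPES pH 7.5, 20 mM MgCl2, 0.015% Brij-35, 4 mM DTT, 5 μM ATP, 1.5 μM FITC-AHA-AKRRRLSSLRA-OH peptide; DMSO <2%. EDTA-stopped; phosphorylated/non-phosphorylated peptide separated by microfluidic LabChip readout. Dose-response inhibition curve-fitted to give IC50.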

ROCK2, sequence (O75116 whole entry, species assumed): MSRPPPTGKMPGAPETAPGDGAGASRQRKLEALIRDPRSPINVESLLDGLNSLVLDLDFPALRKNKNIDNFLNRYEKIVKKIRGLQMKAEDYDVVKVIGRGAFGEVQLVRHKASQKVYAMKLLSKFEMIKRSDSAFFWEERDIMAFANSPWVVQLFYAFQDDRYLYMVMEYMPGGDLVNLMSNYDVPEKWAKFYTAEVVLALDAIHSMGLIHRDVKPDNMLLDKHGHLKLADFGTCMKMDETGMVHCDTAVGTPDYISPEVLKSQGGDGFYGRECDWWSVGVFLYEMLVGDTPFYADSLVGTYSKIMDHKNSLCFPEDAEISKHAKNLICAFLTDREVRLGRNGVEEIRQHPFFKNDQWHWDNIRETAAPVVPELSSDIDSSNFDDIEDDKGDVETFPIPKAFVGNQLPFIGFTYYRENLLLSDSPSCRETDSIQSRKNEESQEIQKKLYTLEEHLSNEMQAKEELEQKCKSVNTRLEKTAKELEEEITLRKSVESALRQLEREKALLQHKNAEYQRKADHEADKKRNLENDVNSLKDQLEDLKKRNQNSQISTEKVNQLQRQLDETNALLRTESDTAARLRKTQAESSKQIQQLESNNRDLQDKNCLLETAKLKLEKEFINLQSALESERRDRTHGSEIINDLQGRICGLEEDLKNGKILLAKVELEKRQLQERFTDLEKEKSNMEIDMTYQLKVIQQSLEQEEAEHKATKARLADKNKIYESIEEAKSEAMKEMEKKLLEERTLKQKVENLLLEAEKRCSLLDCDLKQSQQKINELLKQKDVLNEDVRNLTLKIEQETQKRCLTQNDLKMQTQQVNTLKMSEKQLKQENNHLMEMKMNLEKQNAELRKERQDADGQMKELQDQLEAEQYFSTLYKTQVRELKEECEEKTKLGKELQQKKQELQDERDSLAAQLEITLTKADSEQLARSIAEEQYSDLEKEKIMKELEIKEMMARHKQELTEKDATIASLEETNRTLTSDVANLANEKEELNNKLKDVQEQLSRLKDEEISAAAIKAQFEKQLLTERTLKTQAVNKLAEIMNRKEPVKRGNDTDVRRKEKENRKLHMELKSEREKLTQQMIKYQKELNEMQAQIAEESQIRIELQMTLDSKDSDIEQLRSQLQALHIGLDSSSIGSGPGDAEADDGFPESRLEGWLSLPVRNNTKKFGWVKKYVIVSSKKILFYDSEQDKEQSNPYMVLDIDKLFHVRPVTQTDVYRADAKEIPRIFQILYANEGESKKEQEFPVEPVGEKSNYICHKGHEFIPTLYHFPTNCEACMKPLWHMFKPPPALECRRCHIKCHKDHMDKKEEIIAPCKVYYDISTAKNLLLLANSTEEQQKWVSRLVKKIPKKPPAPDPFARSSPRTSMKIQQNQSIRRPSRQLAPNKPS

COc1ccc2c(c1)CCc1sc(NC(=O)Cc3ccc(Oc4ncccc4C(N)=O)c(Cl)c3)nc1-2 [Example 116, 2-(2-chloro-4-(2-((7-methoxy-4,5-dihydronaphtho[1,2-d]thiazol-2-yl)amino)-2-oxoethyl)phenoxy)nicotinamide] was tested, and the IC50 was 8 nM.

Molecule Cc1sc(NC(=O)Cc2ccc(Oc3ncccc3C(N)=O)c(F)c2)nc1-c1ccc(=O)n(C)c1 [Example 020, 2-(2-fluoro-4-(2-((5-methyl-4-(1-methyl-6-oxo-1,6-dihydropyridin-3-yl)thiazol-2-yl)amino)-2-oxoethyl)phenoxy)nicotinamide] has an IC50 of 106 nM.

Molecule NC(=O)c1ccc2nc(NC(=O)Cc3ccc(Oc4ncccc4C(N)=O)cc3)sc2c1 [Example 066, 2-(2-(4-((3-carbamoylpyridin-2-yl)oxy)phenyl)acet-amido)benzo[d]thi-azole-6-carboxamide] has an IC50 of 830 nM.

COCCn1c(NC(=O)Cc2ccc(Oc3ncccc3C(N)=O)c(F)c2)nc2ccc(C(N)=O)cc21 [Example 158, 2-(2-(4-((3-carbamoyl-pyridin-2-yl)oxy)-3-fluorophenyl)-acetamido)-1-(2-methoxyethyl)-1H-benzo[d]-imidazole-6-carboxamide] was tested, and the IC50 was 1720 nM.

NC(=O)c1cccnc1Oc1ccc(CC(=O)Nc2nc3cc(OCc4ccccc4)ccn3n2)cc1F [Example 143, 2-(4-(2-((7-(benzyloxy)-[1,2,4]triazolo[1,5-a]pyridin-2-yl)amino)-2-oxoethyl)-2-fluorophenoxy)nicotinamide] showed an IC50 of 6 nM.

Molecule CC(C)n1c(NC(=O)Cc2ccc(Oc3ncccc3C(N)=O)c(F)c2)nc2ccccc21 [Example 153, 2-(2-fluoro-4-(2-((1-isopropyl-1H-benzo[d]imidazol-2-yl)amino)-2-oxoethyl)-phenoxy)nicotinamide] has an IC50 of 218 nM.

With Cn1nccc1-c1ccc2sc(NC(=O)Cc3ccc(Oc4ncccc4C(N)=O)c(F)c3)nc2c1 [Example 030, 2-(2-fluoro-4-(2-((5-(1-methyl-1H-pyrazol-5-yl)benzo[d]thiazol-2-yl)amino)-2-oxoethyl)phenoxy)nico-tinamide] the IC50 was 8 nM.

For CN1CCc2sc(NC(=O)Cc3ccc(Oc4ncccc4C(N)=O)c(F)c3)nc2C1 [Example 084, 2-(2-fluoro-4-(2-((5-methyl-4,5,6,7-tetrahydrothiazolo [4,5-c]pyridin-2-yl)amino)-2-oxoethyl)phenoxy) nicotinamide], the IC50 was 947 nM.

With COc1ccc(Cc2nnc(NC(=O)Cc3ccc(Oc4ncccc4C(N)=O)c(F)c3)s2)cc1OC [Example 093, 2-(4-(2-((5-(3,4-dimethoxybenzyl)-1,3,4-thiadiazol-2-yl)amino)-2-oxoethyl)-2-fluorophenoxy)nico-tinamide] the IC50 was 213 nM.

With NC(=O)c1cccnc1Oc1ccc(CC(=O)Nc2nc3ccc(OC(F)F)nc3s2)cc1Cl [Example 121, 2-(2-chloro-4-(2-((5-(difluoro-methoxy)thiazolo-[5,4-b]pyridin-2-yl)amino)-2-oxoethyl)phenoxy)-nicotinamide] the IC50 was 45 nM.

NC(=O)c1cccnc1Oc1ccc(CC(=O)Nc2nc3c(F)cccc3n2CC(F)F)cc1F [Example 169, 2-(4-(2-((1-(2,2-difluoroethyl)-4-fluoro-1H-benzo[d]-imidazol-2-yl)-amino)-2-oxo-ethyl)-2-fluoro-phenoxy)nicotin-amide] gave an IC50 of 13 nM.

Cn1cc(-c2ccc3sc(NC(=O)Cc4ccc(Oc5ncccc5C(N)=O)c(F)c4)nc3c2)cn1 [Example 035, 2-(2-fluoro-4-(2-((5-(1-methyl-1H-pyrazol-4-yl)benzo[d]thiazol-2-yl)amino)-2-oxoethyl)phenoxy)nico-tinamide] gave an IC50 of 10 nM.

Molecule NC(=O)c1cccnc1Oc1ccc(CC(=O)Nc2nc(-c3ccccc3)cs2)cc1 [Example 052, 2-(4-(2-oxo-2-((4-phenylthiazol-2-yl)amino)ethyl)phe-noxy)nicotinamide] has an IC50 of 177 nM.

With NC(=O)c1cccnc1Oc1ccc(CC(=O)Nc2nc3ccccc3n2CC2CCC2)cc1F [Example 152, 2-(4-(2-((1-(cyclobutylmethyl)-1H-benzo[d]imidazol-2-yl)amino)-2-oxoethyl)-2-fluorophenoxy)nicotinamide] the IC50 was 55 nM.

In the case of NC(=O)c1cccnc1Oc1ccc(CC(=O)Nc2cn3cc(C(F)(F)F)ccc3n2)cc1F [Example 133, 2-(2-fluoro-4-(2-oxo-2-((6-(trifluoro-methyl)imidazo-[1,2-a]pyridin-2-yl)amino)ethyl)-phenoxy)nicotin-amide], the IC50 is reported as 198 nM.

Cc1nn(C)cc1-c1ccc2sc(NC(=O)Cc3ccc(Oc4ncccc4C(N)=O)c(F)c3)nc2c1 [Example 004, 2-(4-(2-((5-(1,3-dimethyl-1H-pyrazol-4-yl)benzo[d]thiazol-2-yl)amino)-2-oxoethyl)-2-fluorophenoxy)nicotinamide] showed an IC50 of 3 nM.

Molecule NC(=O)c1cccnc1Oc1ccc(CC(=O)Nc2nc(-c3cc[nH]c(=O)c3)cs2)cc1F [Example 018, 2-(2-fluoro-4-(2-oxo-2-((4-(2-oxo-1,2-dihydropyridin-4-yl)thiazol-2-yl)amino)ethyl)phenoxy)nicotinamide] has an IC50 of 245 nM.

COc1cccn2nc(NC(=O)Cc3ccc(Oc4ncccc4C(N)=O)cc3)nc12 [Example 083, 2-(4-(2-((8-methoxy-[1,2,4]triazolo[1,5-a]pyridin-2-yl)amino)-2-oxoethyl)phenoxy) nicotinamide] gave an IC50 of 106 nM.

NC(=O)c1cccnc1Oc1ccc(CC(=O)Nc2nc3cccc(Cl)c3[nH]2)cc1 [Example 073, 2-(4-(2-((7-chloro-1H-benzo[d]imidazol-2-yl)amino)-2-oxoethyl)phenoxy) nicotinamide] was tested, and the IC50 was 244 nM.

In the case of Cc1ccc2[nH]c(NC(=O)Cc3ccc(Oc4ncccc4C(N)=O)cc3)nc2c1 [Example 068, 2-(4-(2-((5-methyl-1H-benzo[d]imidazol-2-yl)amino)-2-oxoethyl)phenoxy) nicotinamide], the IC50 is reported as 600 nM.

In the case of NC(=O)c1cccnc1Oc1ccc(CC(=O)N2CCc3cc(OCc4ccccc4)ccc32)cc1 [Example 059, 2-(4-(2-(5-(benzyloxy)indolin-1-yl)-2-oxoethyl)phenoxy) nicotinamide], the IC50 is reported as 98 nM.

Cc1sc(NC(=O)Cc2ccc(Oc3ncccc3C(N)=O)c(Cl)c2)nc1-c1ccccc1F [Example 080, 2-(2-chloro-4-(2-((4-(2-fluorophenyl)-5-methylthiazol-2-yl)amino)-2-oxoethyl)phenoxy) nicotinamide] gave an IC50 of 15 nM.

In the case of NC(=O)c1cccnc1Oc1ccc(CC(=O)Nc2nnc(-c3ccncc3)s2)cc1F [Example 097, 2-(2-fluoro-4-(2-oxo-2-((5-(pyridin-4-yl)-1,3,4-thiadiazol-2-yl)amino)ethyl)phe-noxy)nicotinamide], the IC50 is reported as 336 nM.

With Cn1ccc(-c2csc(NC(=O)Cc3ccc(Oc4ncccc4C(N)=O)c(F)c3)n2)cc1=O [Example 017, 2-(2-fluoro-4-(2-((4-(1-methyl-2-oxo-1,2-dihydropyridin-4-yl)thiazol-2-yl)amino)-2-oxoethyl)phenoxy)nicotinamide] the IC50 was 404 nM.

Cc1ccc(-c2nc(NC(=O)Cc3ccc(Oc4ncccc4C(N)=O)cc3)sc2C)cc1Cl [Example 050, 2-(4-(2-((4-(3-chloro-4-methylphenyl)-5-methylthiazol-2-yl)amino)-2-oxoethyl)phenoxy) nicotinamide] gave an IC50 of 175 nM.

Work on Cc1sc(NC(=O)Cc2ccc(Oc3ncccc3C(N)=O)c(Cl)c2)nc1-c1cnn(C)c1 [Example 104, 2-(2-chloro-4-(2-((5-methyl-4-(1-methyl-1H-pyrazol-4-yl)thiazol-2-yl)amino)-2-oxoethyl)phenoxy) nicotinamide] yielded an IC50 of 7 nM.

COCCn1c(NC(=O)Cc2ccc(Oc3ncccc3C(N)=O)c(F)c2)nc2ccc(OC)cc21 [Example 157, 2-(2-fluoro-4-(2-((6-methoxy-1-(2-methoxyethyl)-1H-benzo[d]-imidazol-2-yl)-amino)-2-oxo-ethyl)phenoxy)-nicotinamide] was tested, and the IC50 was 804 nM.

Work on NC(=O)c1cccnc1Oc1ccc(CC(=O)Nc2ccn(-c3ccc(C(F)(F)F)cn3)n2)cc1F [Example 100, 2-(2-fluoro-4-(2-oxo-2-((1-(5-(trifluoromethyl)pyridin-2-yl)-1H-pyrazol-3-yl)amino)ethyl)phe-noxy)nicotinamide] yielded an IC50 of 191 nM.

Work on Cc1sc(NC(=O)Cc2ccc(Oc3ncccc3C(N)=O)c(F)c2)nc1-c1cnc(N2CCN(C)CC2)nc1 [Example 039, 2-(2-fluoro-4-(2-((5-methyl-4-(2-(4-methylpiperazin-1-yl)pyrimidin-5-yl)thiazol-2-yl)amino)-2-oxoethyl)phenoxy)nico-tinamide] yielded an IC50 of 183 nM.

In the case of NC(=O)c1cccnc1Oc1ccc(CC(=O)Nc2n[nH]c3ccccc23)cc1Cl [Example 122, 2-(4-(2-((1H-indazol-3-yl)-amino)-2-oxoethyl)-2-chlorophenoxy)-nicotinamide], the IC50 is reported as 97 nM.

For Cc1cccc2nc(NC(=O)Cc3ccc(Oc4ncccc4C(N)=O)c(F)c3)nn12 [Example 096, 2-(2-fluoro-4-(2-((5-methyl-[1,2,4]triazolo[1,5-a]pyridin-2-yl)amino)-2-oxoethyl)phenoxy) nicotinamide], the IC50 was 110 nM.

With Cn1cc(-c2ccc3nc(NC(=O)Cc4ccc(Oc5ncccc5C(N)=O)c(F)c4)cn3c2)cn1 [Example 036, 2-(2-fluoro-4-(2-((6-(1-methyl-1H-pyrazol-4-yl)imidazo[1,2-a]pyridin-2-yl)amino)-2-oxoethyl)phenoxy)nico-tinamide] the IC50 was 48 nM.

Cn1nccc1-c1ccc2nc(NC(=O)Cc3ccc(Oc4ncccc4C(N)=O)c(F)c3)nn2c1 [Example 138, 2-(2-fluoro-4-(2-((6-(1-methyl-1H-pyrazol-5-yl)-[1,2,4]triazolo[1,5-a]pyridin-2-yl)amino)-2-oxoethyl)phenoxy)nicotinamide] gave an IC50 of 39 nM.

For COc1cccn2nc(NC(=O)Cc3ccc(Oc4ncccc4C(N)=O)c(Cl)c3)nc12 [Example 082, 2-(2-chloro-4-(2-((8-methoxy-[1,2,4]triazolo[1,5-a]pyridin-2-yl)amino)-2-oxoethyl)phenoxy) nicotinamide], the IC50 was 6 nM.
